According to patent publication US8247573B2, “Substituted N-(2-mercaptopyridin-3-yl)amides as KCNQ2/3 modulators” (Gruenenthal GmbH, priority 2009, dated 2012):

Target: T1, KCNQ2/3 channels (Homo sapiens, UniProt O43525+O43526)
T1 construct: expressed in transfected cells; host or cells: CHO-K1
Assay: Fluorescence assay using a voltage-sensitive dye (fluorimetry)
Assay type: cell-based
Settings: CHO-K1 cells expressing KCNQ2/3; for Emax: relative to retigabine = 100%, negative values = antagonistic, read-out: Fluorimetry % efficacy (I/EC50, retigabine = 100%); for EC50: agonistic activity
Description: Pharmacological Experiments Fluorescence Assay Using a Voltage-Sensitive Dye
Human CHO-K1 cells expressing KCNQ2/3 channels are cultivated adherently at 37° C., 5% CO2 and 95% humidity in cell culture bottles (e.g. 80 cm^2 TC flasks, Nunc) with DMEM-high glucose (Sigma Aldrich, D7777) including 10% FCS (PAN Biotech, e.g. 3302-P270521) or alternatively MEM Alpha Medium (1×, liquid, Invitrogen, #22571), 10% foetal calf serum (FCS) (Invitrogen, #10270-106, heat-inactivated) and the necessary selection antibiotics.
Before being seeded out for the measurements, the cells are washed with a 1×DPBS buffer without Ca^2+/Mg^2+ (e.g. Invitrogen, #14190-094) and detached from the bottom of the culture vessel by means of Accutase (PAA Laboratories, #L11-007) (incubation with Accutase for 15 min at 37° C.). The cell count then present is determined using a CASY™ cell counter (TCC model, Schärfe System) in order subsequently to apply 20,000 to 30,000 cells/well/100 μl of the described nutrient medium, depending on density optimisation for the individual cell line, to 96-well measuring plates of the Corning™ CellBIND™ type (flat clear-bottom black polystyrene microplates, #3340). Incubation is then carried out for one hour at room temperature, without gassing or adjusting the humidity, followed by incubation for 24 hours at 37° C., 5% CO2 and 95% humidity.
The voltage-sensitive fluorescent dye from the Membrane Potential Assay Kit (Red™ bulk format part R8123 for FLIPR, MDS Analytical Technologies™) is prepared by dissolving the contents of a vessel of Membrane Potential Assay Kit Red Component A in 200 ml of extracellular buffer (ES buffer, 120 mM NaCl, 1 mM KCl, 10 mM HEPES, 2 mM CaCl2, 2 mM MgCl2, 10 mM glucose; pH 7.4). After removal of the nutrient medium, the cells are washed with 200 μl of ES buffer, then covered with a layer of 100 μl of the dye solution prepared above and incubated for 45 min at room temperature with exclusion of light.
The fluorescence measurements are carried out with a BMG Labtech FLUOstar™, BMG Labtech NOVOstar™ or BMG Labtech POLARstar™ instrument (525 nm excitation, 560 nm emission, bottom-read mode). After incubation of the dye, 50 μl of the substances to be tested in the desired concentrations, or 50 μl of ES buffer for control purposes, are introduced into separate cavities of the measuring plate and incubated for 30 min at room temperature whilst being shielded from light. The fluorescence intensity of the dye is then measured for 5 min and the fluorescence value F1 of each well is thus determined at a given, constant time. 15 μl of a […] KCl solution […] are then added to each well. The change in fluorescence is subsequently measured until all relevant measured values have been obtained (mainly […]). At a given time after KCl application, a fluorescence value F2 is determined, in this case at the time of the fluorescence peak.
For calculation, the fluorescence intensity F2 is compared with the fluorescence intensity F1, and the agonistic activity of the target compound on the potassium channel is determined therefrom. F2 and F1 are calculated as follows: […]
In order to determine whether a substance has an agonistic activity,
[formula] is determined by adding to the reaction batch only the buffer solution instead of the substance to be tested, determining the value F1K of the fluorescence intensity, adding the potassium ions as described above and measuring a value F2K of the fluorescence intensity. Then F2K and F1K are calculated as follows: […]
A substance has an agonistic activity on the potassium channel if
Independently of the comparison of
[formula] it is also possible to conclude that a target compound has an agonistic activity if an increase in
[formula] is to be observed as the dosage of the target compound increases.
Calculations of EC50 values are carried out with the aid of Prism v4.0 software (GraphPad Softwares™).

Row | SMILES | Emax | EC50
1 | O=C(Nc1cccnc1SCCS(=O)(=O)c1ccccc1)c1ccccc1 [Example 4, N-[2-[2-(Benzenesulfonyl)-ethylsulfanyl]-pyridin-3-yl]benzamide] | 55% | –
2 | O=C(CCC1CCCCC1)Nc1cccnc1SCCS(=O)(=O)c1ccccc1 [Example 6, N-[2-[2-(Benzenesulfonyl)-ethylsulfanyl]-pyridin-3-yl]-3-cyclohexyl propionamide] | 225% | 76 nM
3 | O=C(Nc1cccnc1SCCS(=O)(=O)c1cccc(C(F)(F)F)c1)C1CCCCO1 (stereo not drawn) [Example 48, N-[2-[2-[[3-(Trifluoromethyl)phenyl]sulfonyl]-ethylsulfanyl]-pyridin-3-yl]-tetrahydropyrane-2-carboxylic acid amide] | 93% | 174 nM
4 | O=C(CCc1ccccc1)Nc1cccnc1SCCS(=O)(=O)c1cccc(C(F)(F)F)c1 [Example 27, 3-Phenyl-N-[2-[2-[[3-(trifluoromethyl)phenyl]sulfonyl]-ethylsulfanyl]-pyridin-3-yl]propionamide] | 112% | 208 nM
5 | O=C(CCC1CCCC1)Nc1cccnc1SCCS(=O)(=O)c1cccc(C(F)(F)F)c1 [Example 28, 3-Cyclopentyl-N-[2-[2-[[3-(trifluoromethyl)phenyl]sulfonyl]-ethylsulfanyl]-pyridin-3-yl]propionamide] | 152% | 277 nM
6 | O=C(CCC1CCCCCC1)Nc1cccnc1SCCS(=O)(=O)c1cccc(C(F)(F)F)c1 [Example 58, 3-Cycloheptyl-N-[2-[2-[[3-(trifluoromethyl)phenyl]sulfonyl]-ethylsulfanyl]-pyridin-3-yl]propionamide] | 167% | 47.5 nM
7 | O=C(CCc1cccs1)Nc1cccnc1SCCS(=O)(=O)c1cccc(C(F)(F)F)c1 [Example 26, 3-Thiophen-2-yl-N-[2-[2-[[3-(trifluoromethyl)phenyl]sulfonyl]-ethylsulfanyl]-pyridin-3-yl]propionamide] | 82% | 123 nM
8 | COc1cccc(CC(=O)Nc2cccnc2SCCS(=O)(=O)c2cccc(C(F)(F)F)c2)c1 [Example 11, 2-(3-Methoxyphenyl)-N-[2-[2-[[3-(trifluoromethyl)phenyl]sulfonyl]-ethylsulfanyl]-pyridin-3-yl]acetamide] | 109% | 588 nM
9 | O=C(Nc1cccnc1SCCCc1ccc(F)cc1)c1ccc(F)c(F)c1 [Example 65, 3,4-Difluoro-N-[2-[3-(4-fluorophenyl)-propylsulfanyl]-pyridin-3-yl]benzamide] | 148% | 480 nM
10 | O=C(Cc1ccccc1O)Nc1cccnc1SCCS(=O)(=O)c1cccc(C(F)(F)F)c1 [Example 12, 2-(2-Hydroxyphenyl)-N-[2-[2-[[3-(trifluoromethyl)phenyl]sulfonyl]-ethylsulfanyl]-pyridin-3-yl]acetamide] | 141% | 168 nM
11 | CC(C)(C)CC(=O)Nc1cccnc1SCCOc1ccc(F)cc1 [Example 63, N-[2-[2-(4-Fluorophenoxy)-ethylsulfanyl]-pyridin-3-yl]-3,3-dimethyl butyramide] | 119% | 546 nM
12 | COc1ccc(CC(=O)Nc2cccnc2SCCS(=O)(=O)c2cccc(C(F)(F)F)c2)cc1 [Example 10, 2-(4-Methoxyphenyl)-N-[2-[2-[[3-(trifluoromethyl)phenyl]sulfonyl]-ethylsulfanyl]-pyridin-3-yl]acetamide] | 74% | 55 nM
13 | O=C(CC1CCCC1)Nc1cccnc1SCCS(=O)(=O)c1cccc(C(F)(F)F)c1 [Example 14, 2-Cyclopentyl-N-[2-[2-[[3-(trifluoromethyl)phenyl]sulfonyl]-ethylsulfanyl]-pyridin-3-yl]acetamide] | 167% | 45 nM
14 | O=C(Nc1cccnc1SCCS(=O)(=O)c1cccc(C(F)(F)F)c1)c1cccs1 [Example 18, N-[2-[2-[[3-(Trifluoromethyl)phenyl]sulfonyl]-ethylsulfanyl]-pyridin-3-yl]-thiophene-2-carboxylic acid amide] | 43% | 457 nM
